Test system: induced astrocytes (iA) transfected with R239C AxD mutant GFAP-GFP
Assay: GFAP protein aggregates in induced astrocytes transfected with AxD mutant GFAP-GFP
Format: cell-based, mouse
Conditions: 100 μM ceftriaxone for 48 hr vs vehicle
Description: Transfection into induced astrocytes. Induced astrocytes (iA) were seeded at 1×10^5 cells per well in 12-well plates and incubated overnight. Then 2 μg plasmid of human wild type (WT) GFAP-GFP or AxD mutant GFAP-GFP with the R239C mutation (Bachetti et al., 2008) was transfected into iA using Lipofectamine® 2000 (Invitrogen). Forty eight hr after transfection, cells were assayed by immunostaining. For drug treatment, 24 hr after transfection, cells were treated with vehicle control or 100 μM ceftriaxone for 48 hr, followed by immunostaining.
AxD is a neurological disease with astrocyte dysfunction and is caused by genetic mutation of the GFAP gene (Messing et al., 2012). Expression of AxD mutant GFAP induces the expression of αB-crystallin, a small heat shock protein, and the formation of protein aggregates containing GFAP and αB-crystallin in astrocytes (Messing et al., 2012). The compound-induced astrocytes were tested to see if they could be used to model AxD. Plasmid expressing GFP fusion of the wild type (WT) or AxD mutant GFAP containing the R239C mutation, a hotspot mutation for AxD (Hagemann et al., 2006), were transfected into VCSTO-induced astrocytes. […] VCSTO-induced astrocytes transfected with the AxD mutant GFAP were treated with ceftriaxone.

| Structure (SMILES) | GFAP protein aggregates in iA with AxD mutant GFAP |
| --- | --- |
| CO/N=C(\C(=O)N[C@@H]1C(=O)N2C(C(=O)O)=C(CSc3nc(=O)c(=O)[nH]n3C)CS[C@H]12)c1csc(N)n1 [ceftriaxone] | Substantial elimination of GFAP protein aggregates |

Test system: MEF transduced with AxD GFAP-GFP
Assay: GFAP protein aggregates in MEF transduced with AxD mutant GFAP-GFP
Format: cell-based, mouse
Conditions: ceftriaxone vs vehicle
Description: FIGS. 12A-12E illustrate recapitulating GFAP protein aggregates in VCSTO-induced astrocytes (iA) transfected with an AxD mutant GFAP. […] The transfected cells are indicated by GFP. Nuclei Dapi staining (blue) is included in the merged images. Scale bar, 10 μm. […] Scale bar, 10 μm. […] The percentage of iA that contained the GFAP-GFP aggregates was reduced upon ceftriaxone treatment. n=400 to 500 cells. […] MEF transduced with the AxD GFAP-GFP were treated with ceftriaxone (+Cef) or vehicle control (−Cef). The percentage of MEF that contain the GFAP-GFP aggregates remained the same in the absence or presence of ceftriaxone treatment. n=600 to 900 cells. […] Error bars are sd of the mean, **p<0.01 by Student's t-test.
AxD is a neurological disease with astrocyte dysfunction and is caused by genetic mutation of the GFAP gene (Messing et al., 2012). Expression of AxD mutant GFAP induces the expression of αB-crystallin, a small heat shock protein, and the formation of protein aggregates containing GFAP and αB-crystallin in astrocytes (Messing et al., 2012). The compound-induced astrocytes were tested to see if they could be used to model AxD. Plasmid expressing GFP fusion of the wild type (WT) or AxD mutant GFAP containing the R239C mutation, a hotspot mutation for AxD (Hagemann et al., 2006), were transfected into VCSTO-induced astrocytes. […]

| Structure (SMILES) | GFAP protein aggregates in MEF with AxD mutant GFAP |
| --- | --- |
| CO/N=C(\C(=O)N[C@@H]1C(=O)N2C(C(=O)O)=C(CSc3nc(=O)c(=O)[nH]n3C)CS[C@H]12)c1csc(N)n1 [ceftriaxone] | not responsive |

Test system: MEFs
Assay: Direct reprogramming of MEFs into astrocytes, GFAP/S100β immunostaining
Format: cell-based, mouse
Conditions: MEFs treated for 25 days, GFAP immunostaining
Description: Cell culture. MEFs and TTFs were derived from E13.5 embryos of Oct4-GFP transgenic (OG2) mice (Szabo et al., 2002), wild type or GFAP-GFP transgenic mice (Jackson Laboratory) (Zhuo et al., 1997). These cells were cultured in MEF medium containing DMEM, 10% FBS, 0.1 mM nonessential amino acids, and 2 mM L-glutamine. Mouse primary astrocytes were isolated from P1-2 pups following published protocol ([…] et al., 2013) and cultured in DMEM containing 10% FBS. Direct reprogramming mouse fibroblasts into astrocytes. MEFs were plated on 6-well or 12-well plates at a cell density of 3×10^3 cells/cm^2. Cells were cultured in MEF medium for 24 hr, then changed to mouse induced astrocyte medium (iAM) containing knock-out DMEM with 10% knock-out serum replacer, 10% FBS, 2 mM L-glutamine, 0.1 mM NEAA, 0.1 mM β-mercaptoethanol, and 100 ng/ml FGF. Cells were treated with compounds, including […] valproaic acid (VPA) (Stemgent), 3 μM CHIR99021(D&C chemicals), 10 μM SB-431542 (D&C chemicals), 10 μM Tranylcypromine (Stemgent), and 1 μM OAC1(Li et al., 2012) for 10 days, replated onto Matrigel-coated plates (BD Biosciences) and continued with compound treatment for another 15 days. Cells were then switched to mouse astrocyte medium (AM) containing DMEM with 10% heat-inactivated FBS. Immunocytochemistry. […]

| Structure (SMILES) | induction of GFAP-positive cells from MEFs |
| --- | --- |
| NC(=O)c1ccc(-c2nc(-c3ccc4c(c3)OCO4)c(-c3ccccn3)[nH]2)cc1 [S, 4-[4-(1,3-benzodioxol-5-yl)-5-pyridin-2-yl-1H-imidazol-2-yl]benzamide] | sufficient to induce GFAP-positive cells |
| Cc1cccc(-c2n[nH]cc2-c2ccc3ncccc3n2)n1 [Compound 6, 2-[5-(6-methylpyridin-2-yl)-1H-pyrazol-4-yl]-1,5-naphthyridine] | able to induce GFAP-positive cells |

Test system: reprogramming efficiency
Assay: Enhancement of reprogramming efficiency by OAC compounds
Format: cell-based
Conditions: not given

| Structure (SMILES) | Enhance reprogramming efficiency |
| --- | --- |
| O=C(Nc1cc2cc[nH]c2cn1)c1ccccc1 [Compound C1] | YES |
| O=C(Nc1ccc2[nH]ccc2c1)c1ccccc1 [Compound C2] | YES |
| O=C(Nc1ccc2[nH]ccc2c1)c1ccc(F)cc1 [Compound C3] | YES |

Test system: Oct4-luc
Assay: Oct4-luc reporter induction by OAC compounds
Format: cell-based
Parameters: key to Oct4-luc Activity: Active: Compounds that induce Oct4-luc 1.8-fold or more were classified as being “active”; Inactive: molecules that induce Oct4-luc less than 1.8-fold were indicated as being “inactive”
Conditions: not given

| Structure (SMILES) | Oct4-luc Activity | Oct4-luc fold Induction [fold] |
| --- | --- | --- |
| COc1ccc(C(=O)Nc2ccc3[nH]ncc3c2)c(OC)c1 [Compound C28] | Inactive | 1.42 |
| Cc1ccc(C(=O)Nc2ccc3[nH]cc(C#N)c3c2)cc1 [Compound C17] | Inactive | 1.1 |
| O=C(Nc1cc2cc[nH]c2cn1)c1ccccc1 [Compound C1] | Active | 4.72 |
| CCOc1cccc(C(=O)Nc2ccc3[nH]ncc3c2)c1 [Compound C14] | Active | 2.67 |
| O=C(Nc1ccc2[nH]ncc2c1)c1ccccc1F [Compound C22] | Inactive | 1.5 |
| COc1cccc(C(=O)Nc2ccc3[nH]ncc3c2)c1OC [Compound C27] | Inactive | 1.37 |
| O=C(Nc1ccc2[nH]ccc2c1)c1ccccc1 [Compound C2] | Active | 4.15 |
| O=C(Nc1ccc2[nH]ncc2c1)c1ccccc1Br [Compound C24] | Inactive | 1.46 |
| CCOc1ccccc1C(=O)Nc1ccc2[nH]ncc2c1 [Compound C26] | Inactive | 1.22 |
| COc1ccc(C(=O)Nc2ccc3[nH]ncc3c2)cc1OC [Compound C29] | Inactive | 1.13 |
| O=C(Nc1ccc2[nH]nnc2c1)c1cccc(Cl)c1 [Compound C31] | Inactive | 1 |
| Cc1nc2cc(NC(=O)c3ccc([N+](=O)[O-])cc3)ccc2[nH]1 [Compound C32] | Inactive | 1.3 |
| COc1ccccc1C(=O)Nc1ccc2[nH]ncc2c1 [Compound C25] | Inactive | 1.5 |
| COc1cccc(C(=O)Nc2ccc3[nH]ncc3c2)c1 [Compound C15] | Active | 1.93 |
| O=C(Nc1ccc2[nH]ncc2c1)c1ccc(Cl)cc1Cl [Compound C12] | Active | 3.6 |
| O=C(Nc1ccc2[nH]ncc2c1)c1ccccc1Cl [Compound C23] | Inactive | 1.72 |

| Structure (SMILES) | Oct4-luc Activity | Oct4-luc fold Induction [fold] |
| --- | --- | --- |
| COc1ccc(C(=O)Nc2ccc3[nH]ccc3c2)cc1 [Compound C4] | Active | 5.46 |
| O=C(Nc1ccc2[nH]ncc2c1)c1cccc(Br)c1 [Compound C20] | Inactive | 1.48 |
| O=C(Nc1ccc2[nH]ncc2c1)c1ccc(F)cc1 [Compound C7] | Active | 2.2 |
| O=C(Nc1ccc2[nH]ncc2c1)c1cccc(C(F)(F)F)c1 [Compound C21] | Inactive | 1.48 |
| O=C(Nc1ccc2[nH]ccc2c1)c1ccc(F)cc1 [Compound C3] | Active | 3.84 |
| CCc1ccc(C(=O)Nc2ccc3[nH]ncc3c2)cc1 [Compound C10] | Active | 4.51 |
| O=C(Nc1ccc2[nH]ccc2c1)c1ccc2nonc2c1 [Compound C5] | Active | 2.87 |
| COc1ccc(C(=O)Nc2ccc3[nH]ncc3c2)cc1 [Compound C6] | Active | 3.18 |
| CCOc1ccc(C(=O)Nc2ccc3[nH]ncc3c2)cc1OCC [Compound C30] | Inactive | 1 |
| O=C(Nc1ccc2[nH]ncc2c1)c1ccccc1 [Compound C8] | Active | 1.89 |
| O=C(Nc1ccc2[nH]ncc2c1)c1cccc(Cl)c1 [Compound C19] | Inactive | 1.65 |
| CCOc1ccc(C(=O)Nc2ccc3[nH]ncc3c2)cc1 [Compound C9] | Active | 7.22 |
| CC(C)c1ccc(C(=O)Nc2ccc3[nH]ncc3c2)cc1 [Compound C11] | Active | 3.78 |
| Cc1ccc(C(=O)Nc2ccc3[nH]ncc3c2)cc1C [Compound C13] | Active | 2.78 |
| CN1CCC(c2c[nH]c3ccc(NC(=O)c4ccc(F)cc4)cc23)CC1 [Compound C16] | Inactive | 1 |
| O=C(Nc1ccc2[nH]ncc2c1)c1cccc(F)c1 [Compound C18] | Inactive | 1.27 |

Reference: patent US11413286B2, “Producing astrocytes using small molecules” (CITY OF HOPE, priority 2016, dated 2022)
